Where two headings read alike, the source gives them in different places.
Legend:
NMDA receptors [1] = details: Table 1, *: not screened in chick retina assay; estimated from other reported electrophysiological data; cited from earlier work
KA receptors [2] = details: Table 1, *: not screened in chick retina assay; estimated from other reported electrophysiological data; cited from earlier work
Quis receptors [3] = details: Table 1, *: not screened in chick retina assay; estimated from other reported electrophysiological data; cited from earlier work
[4] = cited from earlier work; for BBB penetrability: Table 1; for penetration of blood brain barriers: statement in text
NMDA receptors [5] = test: Chick retina assay: protection against excitotoxic action of NMDA; format: cell-based
Excerpt: (§1) Antagonist potencies were established in a chick retina assay which has
(§2) (NMDA, KA and Quis) for excitotoxic properties and EAA antagonists for
(§3) potency in protecting the retina against the excitotoxic action of such
(§4) agonists. The concentration of antagonist required to totally prevent the
(§5) toxic action of an agonist was used to compare antagonists for potency.
(§6) For purposes of illustration, the data were normalized by assigning a
(§7) EAA antagonist properties have been described in each category. Antagonis
(§8) potencies were established in a chick retina assay which has been used by
(§9) Quis) for excitotoxic properties and EAA antagonists for potency in
(§10) protecting the retina against the excitotoxic action of such agonists.
(§11) concentration of antagonist required to totally prevent the toxic action
(§12) of an agonist was used to compare antagonists for potency. For purposes o
(§13) to kynurenic acid vs KA (see table 1) and all other values were adjusted

cerebral ischemia = details: animal experiments, cerebral ischemia (stroke); cited from earlier work
humans = details: cited from earlier work; for psychotic effects: humans; for serious side effects: interaction with NMDA receptors throughout the brain
[6] = tested on: motion sickness or vertigo; details: in vivo; cited from earlier work
patients = details: high blood concentrations, humans; cited from earlier work
[7] = tested on: area postrema-CVO neurons; details: cited from earlier work; for emesis at a toxic dose: dogs and monkeys; for neurotoxic effects: subcutaneous, immature animals of various species including monkeys, CVO brain regions
ferrets [8] = details: ferrets treated with cisplatin; cited from earlier work
cancer patients = details: cited from earlier work
5-HT M receptors = details: cited from earlier work
KA receptors [9] = test: Chick retina assay: protection against excitotoxic action of KA; format: cell-based; details: Table 1, normalized to kynurenic acid vs KA = 1
Excerpt: as §1, §2, §3, §4, §5, §6, §7, §8, §9, §10, §11, §12, §13

Quis receptors [10] = test: Chick retina assay: protection against excitotoxic action of Quis; format: cell-based; details: Table 1, normalized to kynurenic acid vs KA = 1
Excerpt: as §1, §2, §3, §4, §5, §6, §7, §8, §9, §10, §11, §12, §13

non-NMDA receptors = test: Chick retina assay: blocking non-NMDA receptors; format: cell-based; details: chick retinas, relative to Kyn
[11] = tested on: EAA receptors (NMDA, KA, Quis); details: cited from earlier work
dogs [12] = test: Emesis induction by glutamate in dogs; blockage by D-AP5 or Kyn; format: in vivo, dog
dogs [13] = test: Emesis induction by NMDA in dogs; blockage by D-AP5; format: in vivo, dog; details: IV, in the vicinity of 5 mg/kg
Procedure: Therefore, each dog (all were young adults) was used for more than one experiment. Typically, one or more tests would be done using NMDA to determine an effective dosage for an individual dog. After the dose was established, an experiment was conducted on a subsequent day in which the dog also received 2 mg/kg D-AP5 subcutaneously (SC), along with the NMDA. On the day after that, NMDA was administered alone, to ensure that the emetic response was unchanged and the dog had not developed tolerance or sustained damage to the emesis-mediating reflexes.

ferrets [14] = test: Emesis induction by cisplatin (8 mg/kg IV) in ferrets; blockage by Kyn; format: in vivo, ferret
Procedure: Four ferrets (a control group) received 8 mg/kg IV cisplatin, a chemotherapeutic drug which has a powerful emetic effect.
Nine ferrets were treated with cisplatin (8 mg/kg IV), and with Kyn, either by bolus (one-shot) injection using 150 mg/kg, or by continuous IV infusion using 50 mg/kg/hour.

ferrets [15] = test: Emesis induction by cisplatin (10 mg/kg IV) in ferrets; blockage by D-AP5/CNQX; format: in vivo, ferret; details: cisplatin 10 mg/kg IV alone, five ferrets, 5 h
Procedure: Since suitable agents such as D-AP5 are available that can block NMDA receptors without crossing the BBB, a mixture of CNQX and D-AP5 was tested to see whether a mixture of an NMDA antagonist and a non-NMDA antagonist would have anti-emetic properties. The dosage of cisplatin was increased to 10 mg/kg IV, since only 3 out of 4 of the control animals vomited when 8 mg/kg was used as described in Example 4. This increased the stringency of the test.
Five control animals (ferrets) were treated.
Five test animals were treated by cisplatin, 10 mg/kg IV, followed by intravenous infusion of a mixture of 15 mg/kg/hr CNQX and 5 mg/kg/hr D-AP5.

dogs [16] = test: Emesis induction by KA in dogs; blockage by Kyn; format: in vivo, dog
Procedure: Kainic acid (KA), an EAA agonist which triggers the KA class of non-NMDA receptors, was administered to dogs at dosages in the vicinity of 0.5 mg/kg SC.

[17] = tested on: emesis associated with cancer chemotherapy; details: in vivo; cited from earlier work
[18] = Table 2, normalized to kynurenic acid vs KA = 1
[19] = of 20 cancer patients, no control group
[20] = Table 1, normalized to kynurenic acid vs KA = 1
[21] = cisplatin 8 mg/kg IV alone, 4 ferrets, 5 h observation
[22] = Kyn 50 mg/kg/hour continuous IV infusion, cisplatin 8 mg/kg IV, ferrets
[23] = Kyn 150 mg/kg bolus, cisplatin 8 mg/kg IV, ferrets

SMILES: C/C(=C\C(N)C(=O)O)CP(=O)(O)O (stereo not shown) [CGP 37849]
- EAA antagonist potency vs NMDA (NMDA receptors [1]): 200
- EAA antagonist potency vs KA (KA receptors [2]): 0
- EAA antagonist potency vs Quis (Quis receptors [3]): 0
- BBB penetrability [4]: moderate

SMILES: O=C(O)C1CN(C/C=C/P(=O)(O)O)CCN1 (stereo not shown) [CPP-ene]
- EAA antagonist potency vs NMDA (NMDA receptors [1]): 200
- EAA antagonist potency vs KA (KA receptors [2]): 0
- EAA antagonist potency vs Quis (Quis receptors [3]): 0
- BBB penetrability [4]: moderate
- penetration of blood brain barriers [4]: do not readily penetrate blood brain barriers

SMILES: c1ccc(C2(N3CCCCC3)CCCCC2)cc1 [PCP, phencyclidine]
- EAA antagonist potency vs NMDA (NMDA receptors [5]; [18]): 2000
- neuroprotective effects (cerebral ischemia): powerful neuroprotective effects
- penetration of blood brain barriers [4]: readily penetrate BBB
- penetration of blood brain barriers ([4]; listed as phencyclidine): permeate easily through BBB's
- psychotic effects (humans): psychotic effects
- serious side effects (humans): psychotic disturbances and pathomorphological changes in cerebrocortical neurons

SMILES: CN1[C@@H]2C[C@@H](OC(=O)[C@H](CO)c3ccccc3)C[C@H]1[C@@H]1O[C@@H]12 [scopolamine]
- effect against motion sickness or vertigo [6]: relatively ineffective unless taken before a boat or airplane ride or other motion begins, or before the onset of vertigo
- effect on nausea and vomiting caused by other factors [6]: not effective

SMILES: N[C@@H](CC(=O)O)C(=O)O [aspartate]
- emetic properties (patients): induce vomiting
- emesis at a toxic dose [7]: first causes the animal to vomit before continued excitatory stimulation destroys the area postrema-CVO neurons
- neurotoxic effects [7]: powerful neurotoxic effects

SMILES: CN1C2CCCC1CC(NC(=O)c1nn(C)c3ccccc13)C2 (stereo not shown) [BRL 43694]
- preventing or reducing the severity of emesis (ferrets [8]): effective in preventing or reducing the severity of emesis
- patients with both nausea and vomiting (delayed in onset) (cancer patients; [19]): 9 patients
- patients with mild nausea (cancer patients; [19]): 4 patients
- patients with neither nausea nor vomiting (cancer patients; [19]): 7 patients
- cisplatin patients with nausea and vomiting (cancer patients; of the 5 patients that received cisplatin): 4 patients
- 5-HT M receptor antagonism (5-HT M receptors): more powerful and selective 5-HT M receptor antagonist than metoclopramide

SMILES: N#Cc1cc2[nH]c(=O)c(=O)[nH]c2cc1[N+](=O)[O-] [CNQX]
- EAA antagonist potency vs NMDA (NMDA receptors [5]; [20]): 5
- EAA antagonist potency vs KA (KA receptors [9]): 30
- EAA antagonist potency vs Quis (Quis receptors [10]): 67
- times more powerful than Kyn in blocking non-NMDA receptors (non-NMDA receptors): approximately 30 times
- block of non-NMDA vs NMDA receptors [11]: block non-NMDA receptors substantially more powerfully than NMDA receptors
- potency compared with kynurenic or 7-chloro-kynurenic acid [11]: significantly more powerful

SMILES: N[C@@H](CCC(=O)O)C(=O)O [Glutamate, glutamate]
- emetic response to glutamate (dogs [12]; 150 mg/kg IV): An emetic response was observed in all animals
- penetration of blood brain barriers [4]: does not penetrate the BBB
- emetic properties (patients): induce vomiting
- emesis at a toxic dose [7]: first causes the animal to vomit before continued excitatory stimulation destroys the area postrema-CVO neurons
- neurotoxic effects [7]: powerful neurotoxic effects

SMILES: CN[C@H](CC(=O)O)C(=O)O [NMDA, N-methyl-D-aspartate]
- emetic response to NMDA (dogs [13]): vomiting can be induced
- penetration of blood brain barriers [4]: does not penetrate the BBB

SMILES: C[C@]12N[C@H](Cc3ccccc31)c1ccccc12 [MK-801]
- EAA antagonist potency vs NMDA (NMDA receptors [5]; [18]): 5000
- neuroprotective effects (cerebral ischemia): powerful neuroprotective effects
- psychotic effects (humans): psychotic effects
- serious side effects (humans): psychotic disturbances and pathomorphological changes in cerebrocortical neurons

SMILES: CN(C)CCOC(c1ccccc1)c1ccccc1 [dimenhydrinate]
- effect against motion sickness or vertigo [6]: relatively ineffective unless taken before a boat or airplane ride or other motion begins, or before the onset of vertigo
- effect on nausea and vomiting caused by other factors [6]: not effective

SMILES: N.N.[Cl][Pt][Cl] [cisplatin]
- malaise after cisplatin (ferrets [14]; [21]): All four control animals displayed persistent malaise
- vomiting after cisplatin (ferrets [14]; [21]): One control animal did not vomit, but the other three vomited repeatedly
- appearance of illness (ferrets [15]): all appeared ill throughout the observation period

SMILES: C=C(C)[C@H]1CN[C@H](C(=O)O)[C@H]1CC(=O)O [KA, kainic acid]
- emetic response to KA (dogs [16]; in the vicinity of 0.5 mg/kg SC, without Kyn): All of the animals suffered an emetic response

SMILES: O=C(O)c1cc(=O)c2ccccc2[nH]1 [kynurenic acid]
- EAA antagonist potency vs NMDA (NMDA receptors [5]; [20]): 4
- EAA antagonist potency vs KA (KA receptors [9]): 1
- EAA antagonist potency vs Quis (Quis receptors [10]): 1
- blockage of KA-induced emesis (dogs [16]; 50 mg/kg SC): emesis was blocked
- blockage of glutamate-induced emesis (dogs [12]; Kyn 75 mg/kg SC): could be blocked
- behavior/malaise after cisplatin, treated by continuous infusion (ferrets [14]; [22]): displayed playful behavior, sought and ate food, did not appear ill
- vomiting after cisplatin, treated by continuous infusion (ferrets [14]; [22]): did not vomit
- appeared as ill as the control animals, treated by bolus injection (ferrets [14]; [23]): only one appeared to be as ill as the control animals
- vomiting and malaise after cisplatin, treated by bolus injection (ferrets [14]; [23]): Three of the ferrets treated by bolus injection vomited once or twice and showed transient malaise
- EAA receptor subtype order of blockade [11]: NMDA>KA>Quis

SMILES: O=C(O)C1CN(CCCP(=O)(O)O)CCN1 (stereo not shown) [CPP]
- EAA antagonist potency vs NMDA (NMDA receptors [1]): 200
- EAA antagonist potency vs KA (KA receptors [2]): 0
- EAA antagonist potency vs Quis (Quis receptors [3]): 0

SMILES: CCN(CC)CCNC(=O)c1cc(Cl)c(N)cc1OC [metoclopramide]
- 5-HT M receptor antagonism (5-HT M receptors): only a weak 5-HT M receptor antagonist
- anti-emetic effect in cancer chemotherapy [17]: only partially effective

SMILES: O=C(O)[C@@H]1C[C@H](CP(=O)(O)O)CCN1 [CGS 19755]
- EAA antagonist potency vs NMDA (NMDA receptors [1]): 200
- EAA antagonist potency vs KA (KA receptors [2]): 0
- EAA antagonist potency vs Quis (Quis receptors [3]): 0
